As a reminder, the IC50 is the concentration that gives 50% inhibition. A higher IC50 goes with weaker potency in that assay.

Common to all, as to type: cell-based
The target in one experiment is T1, human TLR8 (Homo sapiens, UniProt Q9NR97).
T1 construct: host or cells: HEK-Blue cells
T1 sequence (Q9NR97 27-1041): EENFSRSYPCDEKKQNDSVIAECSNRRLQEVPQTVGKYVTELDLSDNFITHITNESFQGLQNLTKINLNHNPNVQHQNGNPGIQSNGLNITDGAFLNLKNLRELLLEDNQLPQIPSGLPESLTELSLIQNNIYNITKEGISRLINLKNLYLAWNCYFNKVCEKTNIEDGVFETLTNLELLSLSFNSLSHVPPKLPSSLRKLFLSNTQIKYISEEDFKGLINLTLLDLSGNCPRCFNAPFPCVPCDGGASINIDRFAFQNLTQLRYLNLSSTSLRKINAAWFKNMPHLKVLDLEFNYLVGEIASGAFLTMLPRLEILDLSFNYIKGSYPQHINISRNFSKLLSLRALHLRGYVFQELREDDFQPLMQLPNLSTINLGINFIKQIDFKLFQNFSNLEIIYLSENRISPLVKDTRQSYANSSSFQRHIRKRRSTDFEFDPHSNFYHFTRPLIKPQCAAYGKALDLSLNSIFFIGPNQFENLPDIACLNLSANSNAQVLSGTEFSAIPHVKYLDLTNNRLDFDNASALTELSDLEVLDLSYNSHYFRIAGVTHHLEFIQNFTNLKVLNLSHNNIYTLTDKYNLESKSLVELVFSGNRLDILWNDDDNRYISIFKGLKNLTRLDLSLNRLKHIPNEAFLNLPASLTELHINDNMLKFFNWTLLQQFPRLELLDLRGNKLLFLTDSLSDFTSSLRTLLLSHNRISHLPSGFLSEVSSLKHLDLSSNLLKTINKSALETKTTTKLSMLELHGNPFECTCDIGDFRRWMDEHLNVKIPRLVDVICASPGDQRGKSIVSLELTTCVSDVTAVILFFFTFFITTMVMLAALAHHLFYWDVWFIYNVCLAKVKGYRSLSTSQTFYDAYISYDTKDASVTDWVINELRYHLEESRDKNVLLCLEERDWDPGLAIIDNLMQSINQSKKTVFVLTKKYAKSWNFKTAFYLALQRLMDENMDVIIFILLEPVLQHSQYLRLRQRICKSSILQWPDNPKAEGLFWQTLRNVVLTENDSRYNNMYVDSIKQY
The experiment is described as follows: TLR8 inhibition reporter assay (HEK-Blue cells, SEAP reporter, R848 stimulation). To be noted: HEK-Blue cells overexpressing human TLR8, SEAP reporter, R848 15.9 μM. As for the experimental part:
(§1) TLR7/8/9 Inhibition Reporter Assays
(§2) HEK-Blue™-cells (Invivogen) overexpressing human TLR7, TLR8 or TLR9 receptors were used for screening inhibitors of these receptors using an inducible SEAP (secreted embryonic alkaline phosphatase) reporter gene under the control of the IFN-β minimal promoter fused to five NF-κB and AP-1-binding sites. Briefly, cells are seeded into Greiner 384 well plates (15000 cells per well for TLR7, 20,000 for TLR8 and 25,000 for TLR9) and then treated with test compounds in DMSO to yield a final dose response concentration range of 0.05 nM-50 μM. After a 30 minute compound pre-treatment at room temperature, the cells are then stimulated with a TLR7 ligand (gardiquimod at a final concentration of 7.5 μM), TLR8 ligand (R848 at a final concentration of 15.9 μM) or TLR9 ligand (ODN2006 at a final concentration of 5 nM) to activate NF-κB and AP-1 which induce the production of SLA After a 22 hour incubation at 37° C., […], SEAP levels are determined with the addition of HEK-Blue™ Detection reagent (Invivogen), a cell culture medium that allows for detection of SLAP, according to manufacturer's specifications. The percent inhibition is determined as the % reduction in the HEK-Blue signal present in wells treated with agonist plus DMSO alone compared to wells treated with a known inhibitor.
(In a reporter assay the amount or activity of a reporter protein is the signal.)

Another experiment deals with T2, human TLR7 (Homo sapiens, UniProt Q9NYK1).
T2 construct: host or cells: HEK-Blue cells
T2 sequence (Q9NYK1 27-1049): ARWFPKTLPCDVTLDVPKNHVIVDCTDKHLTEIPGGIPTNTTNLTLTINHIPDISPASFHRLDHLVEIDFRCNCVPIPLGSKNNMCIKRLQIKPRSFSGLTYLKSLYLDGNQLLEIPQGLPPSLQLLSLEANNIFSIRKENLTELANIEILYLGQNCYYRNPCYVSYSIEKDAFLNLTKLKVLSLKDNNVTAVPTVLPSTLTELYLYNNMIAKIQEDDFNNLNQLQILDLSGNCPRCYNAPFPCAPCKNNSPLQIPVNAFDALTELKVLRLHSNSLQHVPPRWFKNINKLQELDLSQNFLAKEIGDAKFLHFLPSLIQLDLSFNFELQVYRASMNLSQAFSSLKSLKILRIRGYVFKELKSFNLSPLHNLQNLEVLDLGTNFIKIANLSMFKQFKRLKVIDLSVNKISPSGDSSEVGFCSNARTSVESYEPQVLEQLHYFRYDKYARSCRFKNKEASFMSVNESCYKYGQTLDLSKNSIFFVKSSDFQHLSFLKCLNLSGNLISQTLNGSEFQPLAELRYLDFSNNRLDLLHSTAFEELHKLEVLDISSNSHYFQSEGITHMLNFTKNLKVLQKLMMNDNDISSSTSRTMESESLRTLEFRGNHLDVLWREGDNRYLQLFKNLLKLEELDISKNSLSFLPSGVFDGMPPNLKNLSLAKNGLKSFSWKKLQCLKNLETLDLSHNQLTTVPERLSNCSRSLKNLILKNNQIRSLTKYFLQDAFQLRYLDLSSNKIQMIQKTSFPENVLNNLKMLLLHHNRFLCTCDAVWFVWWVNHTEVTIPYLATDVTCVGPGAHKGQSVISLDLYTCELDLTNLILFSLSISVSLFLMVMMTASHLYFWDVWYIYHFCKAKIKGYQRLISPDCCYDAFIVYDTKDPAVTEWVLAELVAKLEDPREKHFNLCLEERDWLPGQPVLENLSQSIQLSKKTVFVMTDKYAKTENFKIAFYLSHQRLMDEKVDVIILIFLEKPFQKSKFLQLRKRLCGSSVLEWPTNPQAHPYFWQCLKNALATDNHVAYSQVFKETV
The experiment is described as follows: TLR7 inhibition reporter assay (HEK-Blue cells, SEAP reporter, gardiquimod stimulation). The note with it: HEK-Blue cells overexpressing human TLR7, SEAP reporter, gardiquimod 7.5 μM. As to the method: as §1, §2

Another experiment has as its target T3, human TLR9 (Homo sapiens, UniProt Q9NR96).
T3 construct: host or cells: HEK-Blue cells
T3 sequence (Q9NR96 26-1032): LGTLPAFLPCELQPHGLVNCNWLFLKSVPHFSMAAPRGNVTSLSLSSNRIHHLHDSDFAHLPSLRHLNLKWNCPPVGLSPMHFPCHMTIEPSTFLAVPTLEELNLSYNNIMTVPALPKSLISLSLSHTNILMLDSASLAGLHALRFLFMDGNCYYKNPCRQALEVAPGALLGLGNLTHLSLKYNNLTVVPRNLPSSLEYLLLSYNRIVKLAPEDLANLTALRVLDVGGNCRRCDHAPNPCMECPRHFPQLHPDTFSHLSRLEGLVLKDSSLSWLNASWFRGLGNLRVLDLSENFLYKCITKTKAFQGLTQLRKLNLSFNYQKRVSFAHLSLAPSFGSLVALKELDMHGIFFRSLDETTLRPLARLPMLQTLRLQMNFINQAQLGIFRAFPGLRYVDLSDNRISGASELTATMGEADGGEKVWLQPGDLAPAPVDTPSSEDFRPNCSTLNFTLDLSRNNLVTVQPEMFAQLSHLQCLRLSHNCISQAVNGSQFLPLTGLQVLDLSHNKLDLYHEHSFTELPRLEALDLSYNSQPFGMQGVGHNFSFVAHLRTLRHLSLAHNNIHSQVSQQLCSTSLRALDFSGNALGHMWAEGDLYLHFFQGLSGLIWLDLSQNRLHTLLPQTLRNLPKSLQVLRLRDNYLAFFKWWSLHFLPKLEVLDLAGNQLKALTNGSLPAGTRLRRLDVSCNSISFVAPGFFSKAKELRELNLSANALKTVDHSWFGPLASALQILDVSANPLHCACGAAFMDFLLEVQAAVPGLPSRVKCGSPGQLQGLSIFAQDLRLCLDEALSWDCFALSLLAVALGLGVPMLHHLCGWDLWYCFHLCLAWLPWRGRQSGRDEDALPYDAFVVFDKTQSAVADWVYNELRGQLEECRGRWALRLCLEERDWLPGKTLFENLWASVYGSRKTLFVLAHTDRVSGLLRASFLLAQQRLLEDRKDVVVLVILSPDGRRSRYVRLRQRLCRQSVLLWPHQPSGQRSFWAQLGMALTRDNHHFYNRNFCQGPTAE
In words: TLR9 inhibition reporter assay (HEK-Blue cells, SEAP reporter, ODN2006 stimulation). The note with it: HEK-Blue cells overexpressing human TLR9, SEAP reporter, ODN2006 5 nM. As for the experimental part: as §1, §2

`Cc1cc(-c2[nH]nc(C(=O)N3CCCN(C)CC3)c2C(C)C)cn2ncnc12` [Example 23]: the IC50 at human TLR8 was determined as 0.00101 µM; on human TLR7, 0.00127 µM; on human TLR9, 4.77 µM.

For `COc1cc(-c2[nH]nc(-c3cnc(C4CCN(C(C)C)CC4)cn3)c2C(C)C)cn2ncnc12` [Example 384], the results for the half-inhibitory concentration (IC50) against human TLR8, against human TLR7 and against human TLR9 were 0.0201 µM, 0.0395 µM and over 50 µM, respectively.

On to `COc1cc(-c2[nH]nc(-c3nc4c(s3)CN(C(C)C)CC4)c2C(C)C)cn2ncnc12` [Example 259], for which the 50% inhibitory concentration (IC50) against human TLR8 was 0.0138 µM; against human TLR7, 0.0235 µM; on human TLR9, over 50 µM.

`CCCN1CC(c2ccc(-c3n[nH]c(-c4cc(C)c5ncnn5c4)c3C(C)C)cc2)C1` [Example 326]: the IC50 at human TLR8 amounted to 0.00797 µM; against human TLR7, 0.00542 µM; on human TLR9 it was 17.6 µM.

For the molecule `Cc1cc(-c2[nH]nc(-c3ccc(N(C)C)cc3)c2C(C)C)cn2ncnc12` [Example 243], the IC50 was determined as 0.0021 µM against human TLR8, 0.0164 µM against human TLR7 and 29.8 µM against human TLR9.

In the case of `Cc1cc(-c2[nH]nc(-c3nc4c(s3)CN(C(=O)C[C@H](C)O)CC4)c2C(C)C)cn2ncnc12` [Example 269], the IC50 against human TLR8 worked out at 0.00255 µM; on human TLR7, 0.00431 µM; against human TLR9, 6.28 µM.

With `Cc1cc(-c2[nH]nc(-c3cn4c(n3)CNCC4)c2C(C)C)cn2ncnc12` [Example 219], the results for the IC50 at human TLR8, against human TLR7 and against human TLR9 were 0.713 µM, 0.637 µM and 46.2 µM, respectively.

As for `Cc1cc(-c2[nH]nc(C(=O)NCC3CN(CC(C)(C)C)CCO3)c2C(C)C)cn2ncnc12` (stereo not drawn) [Example 145], the IC50 is 0.0416 µM on human TLR8, 0.0603 µM on human TLR7 and over 50 µM against human TLR9.

Regarding `Cc1cc(-c2[nH]nc(C(=O)NC3CCC(NCC(C)(C)C)CC3)c2C(C)C)cn2ncnc12` (stereo not drawn) [Example 126], the half-inhibitory concentration (IC50) on human TLR8 was determined as 0.00683 µM; at human TLR7, 0.00098 µM; on human TLR9, 13.2 µM.

Turning to `Cc1cc(-c2[nH]nc(C(=O)N[C@H]3CC[C@H](N(CCC(C)(C)C)CCC(C)(C)C)CC3)c2C(C)C)cn2ncnc12` [Example 107], the IC50 against human TLR8 was determined as 0.19 µM; on human TLR7, 0.0036 µM; against human TLR9, 15.4 µM.

`Cc1cc(-c2[nH]nc(C(=O)NC3CCN(C4COC4)CC3)c2CC(F)(F)F)cn2ncnc12` [Example 200]: the IC50 at human TLR8 was 0.00039 µM; against human TLR7, 0.00092 µM; at human TLR9, 10.1 µM.

`Cc1cc(-c2[nH]nc(-c3ccc(C4CCN(C)CC4)cc3)c2C(C)C)cn2ncnc12` [Example 309]: the IC50 against human TLR8 is 0.00419 µM; at human TLR7, 0.00667 µM; on human TLR9, 14.4 µM.

For the molecule `Cc1cc(-c2[nH]nc(-c3ncc(C4CCN(CC(C)(C)O)CC4)cn3)c2C(C)C)cn2ncnc12` [Example 390], the IC50 against human TLR8 was 0.481 µM; against human TLR7, 0.0936 µM; against human TLR9, over 50 µM.

For the molecule `Cc1cc(-c2[nH]nc(-c3nc4c(s3)CN(CC(C)C)CC4)c2C(C)C)cn2ncnc12` [Example 255], the IC50 at human TLR8 worked out at 0.00488 µM; on human TLR7, 0.00686 µM; on human TLR9, 15.1 µM.

For `Cc1cc(-c2[nH]nc(C(=O)N[C@H]3CC[C@H](N(C)C)CC3)c2C(C)C)cn2ncnc12` [Example 82], the IC50 against human TLR8 is 0.0436 µM; against human TLR7, 0.00469 µM; against human TLR9 it was over 50 µM.

In the case of `CNC(=O)CN1CCC(c2cnc(-c3n[nH]c(-c4cc(OC)c5ncnn5c4)c3C(C)C)cn2)CC1` [Example 400], the IC50 at human TLR8 amounted to 0.0159 µM; against human TLR7, 0.0135 µM; against human TLR9, 9.25 µM.

With `COc1cc(-c2[nH]nc(-c3ccc(C4CCN(C5CCOCC5)CC4)cc3)c2C(C)C)cn2ncnc12` [Example 313], the values for the IC50 against human TLR8, on human TLR7 and against human TLR9 were 0.00172 µM, 0.00371 µM and over 50 µM, respectively.

`Cc1cc(-c2[nH]nc(-c3ccc(C4CCN(C)CC4)nn3)c2C(C)C)cn2ncnc12` [Example 357]: the figures for the IC50 against human TLR8, against human TLR7 and at human TLR9 were over 3.13 µM, 1.28 µM and 38.1 µM, respectively.

On to `Cc1cc(-c2[nH]nc(-c3ccc(C4CCNCC4)cn3)c2C(C)C)cn2ncnc12` [Example 342], for which the IC50 was 0.0126 µM on human TLR8, 0.0196 µM at human TLR7 and over 50 µM on human TLR9.
